Source: US20120077836A1, “METHODS OF ADMINISTERING (4AR,10AR)-1-N-PROPYL-1,2,3,4,4A,5,10,10A-OCTAHYDROBENZO [G] QUINOLINE-6,7-DIOL AND RELATED COMPOUNDS ACROSS THE ORAL MUCOSA, THE NASAL MUCOSA OR THE SKIN AND PHARMACEUTICAL COMPOSITIONS THEREOF” (priority 2009, published 2012)
Counter-ions that a name gives are not always drawn. Like-named read-outs stand apart in the source and are kept apart here.

Experiment: Intravenous and buccal pharmacokinetic study in the minipig
Assay type: in vivo
Details: male, Göttingen, in vivo
Procedure: The test article was compound 10. The vehicles for the test article were Sterile saline (0.9% NaCl) (intravenous administration) supplied by Baxter, Norfolk or Ascorbic acid reconstituted in Water for Injection (buccal administration) supplied by VWR International, Leicestershire. Formulations were prepared on the day of dosing.
Three male minipigs of the Göttingen ApS strain were supplied by Ellegaard Göttingen, Dalmose, Denmark. At initiation of dosing, animals were approximately 15 to 17 weeks old. Each animal was dosed once on three separate occasions according to the following study design:
Animals were deprived of food overnight and anaesthetised with isoflurane in oxygen (administered by facemask), prior to each dosing occasion.
Intravenous administrations were performed by slow manual injection via a temporary catheter placed in the ear vein whilst under anaesthesia, animals were allowed to recover from the anaesthesia immediately after dosing. Whilst anaesthetised, a catheter was inserted into the jugular vein and secured in place for the purpose of blood collection. The catheter was filled with heparin (250 iu/mL in 0.9% sodium chloride). The exterior portion of the catheter was routed from the ventral neck to the dorsum of the minipig and protected by bandaging. The distal end of the catheter was capped and placed in a re-sealable pouch within the bandage. The jugular catheter was retained in place and flushed with heparinised saline every 24 hours.
Buccal administrations were performed by applying the test formulation to the buccal membrane for 5 minutes while the animal was anaesthetised. Any residual formulation remaining in the mouth after the 5 minute application was […]. Animals were allowed to recover from the anaesthesia immediately after dosing.
, all animals on Day 3 following buccal administration of a low dose and all animals on Day 5 following buccal administration of a high dose for pharmacokinetic analysis. The samples (1.0 mL) were collected from the jugular vein (via catheter) into tubes containing EDTA anticoagulant. Prior to addition of the blood sample, 100 microL of a stabiliser (2% beta-mercaptoethanol containing 20 mg/mL ascorbic acid) was added to each pot. The stabiliser was prepared fresh on each day of sample collection. Samples were collected as follows: • Day 1: 5, 10, 15, 30 and 45 minutes and 1, 2, 4, 6, 8, 12 and 16 hours post-dose • Day 3: pre-dose and at 5, 10, 15, 30 and 45 minutes and 1, 2, 4, 6, 8, 12, 16 and 24 hours post-dose • Day 5: pre-dose and at 5, 10, 15, 30 and 45 minutes and 1, 2, 4, 6, 8, 12, 16 and 24 hours post-dose
The times of the blood sampling were generally adhered to. The greatest deviation from the scheduled timepoints was one minute late at the 5 minute timepoint on Day 3. The blood samples were centrifuged within one hour of sample collection and the resultant plasma was frozen prior to analysis.
The plasma concentrations of compound 10 were determined after solid phase extraction of the plasma samples followed by high performance liquid chromatography with tandem mass spectrometric detection (LC-MS/MS) using a sample volume of about 100 microL.
Internal standard solution, containing the internal standard of compound 10 was added to thawed plasma samples (100 microL aliquot). The SPE plate (Oasis HLB, 10 mg) was conditioned with methanol (500 microL) followed by water (500 microL). The sample (approx. 500 microL aliquot) was transferred to the pre-conditioned SPE plate. The sample was then passed through the cartridge, which was then washed with water:methanol (90:10 v/v, 0.5 mL). The sample was then eluted into a fresh 96 well polypropylene collection plate with 20 mM ammonium formate (aq): acetonitrile: formic acid (50:50:2 v/v/v, 250 microL). The organic component of the eluted samples was then evaporated under a gentle stream of nitrogen until approximately 50% of the original volume was remaining. […]

Question: Which results are given for `CCCN1CCC[C@@H]2Cc3c(ccc(O)c3O)C[C@H]21` [compound 10, (4aR,10aR)-1-n-Propyl-1,2,3,4,4a,5,10,10a-octahydro-benzo[g]quinoline-6,7-diol hydrobromide]?
Answer: concentration at 0.17 h (0.01 mg/kg, buccal 0.010 mg/kg, mean, read-out: Plasma concentration Day 3 Hour 0.17, Mean): 0.148 ng/mL; concentration at 0.25 h (0.01 mg/kg, buccal 0.010 mg/kg, mean, read-out: Plasma concentration Day 3 Hour 0.25, Mean): 0.314 ng/mL; concentration at 0.5 h (0.01 mg/kg, buccal 0.010 mg/kg, mean, read-out: Plasma concentration Day 3 Hour 0.5, Mean): 0.752 ng/mL; concentration at 0.75 h (0.01 mg/kg, buccal 0.010 mg/kg, mean, read-out: Plasma concentration Day 3 Hour 0.75, Mean): 1.04 ng/mL; concentration at 1 h (0.01 mg/kg, buccal 0.010 mg/kg, mean, read-out: Plasma concentration Day 3 Hour 1, Mean): 0.869 ng/mL; concentration at 2 h (0.01 mg/kg, buccal 0.010 mg/kg, mean, read-out: Plasma concentration Day 3 Hour 2, Mean): 0.487 ng/mL; bioavailability (0.01 mg/kg, buccal 0.010 mg/kg, range, read-out: bioavailability): 30 to 42%; bioavailability (0.01 mg/kg, buccal 0.010 mg/kg, read-out: bioavailability, mean values): 31 to 35%; half-life (0.01 mg/kg, buccal 0.010 mg/kg, read-out: mean apparent terminal half-life (converted)): 5.1 h; Tmax (0.04 mg/kg, buccal 0.040 mg/kg, animal 1): 1 h; concentration at 0.5 h (0.04 mg/kg, buccal 0.040 mg/kg, individual animals 1-3, read-out: Plasma concentration Day 5 Hour 0.5): 7.88 ng/mL; concentration at 0.75 h (0.04 mg/kg, buccal 0.040 mg/kg, individual animals 1-3, read-out: Plasma concentration Day 5 Hour 0.75): 15.9 ng/mL; concentration at 1 h (0.04 mg/kg, buccal 0.040 mg/kg, individual animals 1-3, read-out: Plasma concentration Day 5 Hour 1): 11.9 ng/mL; concentration at 4 h (0.04 mg/kg, buccal 0.040 mg/kg, mean, read-out: Plasma concentration Day 1 Hour 4, Mean): 1.93 ng/mL; concentration at 6 h (0.04 mg/kg, buccal 0.040 mg/kg, mean, read-out: Plasma concentration Day 1 Hour 6, Mean): 0.93 ng/mL; concentration at 8 h (0.04 mg/kg, buccal 0.040 mg/kg, mean, read-out: Plasma concentration Day 1 Hour 8, Mean): 0.522 ng/mL; concentration at 12 h (0.04 mg/kg, buccal 0.040 mg/kg, mean, read-out: Plasma concentration Day 1 Hour 12, Mean): 0.604 ng/mL; concentration at 16 h (0.04 mg/kg, buccal 0.040 mg/kg, mean, read-out: Plasma concentration Day 1 Hour 16, Mean): 0.292 ng/mL; concentration at 24 h (0.04 mg/kg, buccal 0.040 mg/kg, mean, read-out: Plasma concentration Day 1 Hour 24, Mean): 0.119 ng/mL; concentration at 0.08 h (0.04 mg/kg, buccal 0.040 mg/kg, mean, read-out: Plasma concentration Day 5 Hour 0.08, Mean): 1.29 ng/mL; concentration at 0.17 h (0.04 mg/kg, buccal 0.040 mg/kg, mean, read-out: Plasma concentration Day 5 Hour 0.17, Mean): 3.27 ng/mL; concentration at 0.25 h (0.04 mg/kg, buccal 0.040 mg/kg, mean, read-out: Plasma concentration Day 5 Hour 0.25, Mean): 5.45 ng/mL; concentration at 0.5 h (0.04 mg/kg, buccal 0.040 mg/kg, mean, read-out: Plasma concentration Day 5 Hour 0.5, Mean): 7.14 ng/mL; concentration at 0.75 h (0.04 mg/kg, buccal 0.040 mg/kg, mean, read-out: Plasma concentration Day 5 Hour 0.75, Mean): 12.4 ng/mL; concentration at 1 h (0.04 mg/kg, buccal 0.040 mg/kg, mean, read-out: Plasma concentration Day 5 Hour 1, Mean): 10.8 ng/mL; concentration at 2 h (0.04 mg/kg, buccal 0.040 mg/kg, mean, read-out: Plasma concentration Day 5 Hour 2, Mean): 6.3 ng/mL; bioavailability (0.04 mg/kg, buccal 0.040 mg/kg, range, read-out: bioavailability): 73 to 136%; bioavailability (0.04 mg/kg, buccal 0.040 mg/kg, read-out: bioavailability, mean values): 105 to 122%; half-life (0.04 mg/kg, buccal 0.040 mg/kg, read-out: mean apparent terminal half-life (converted)): 5.6 h; half-life (IV bolus 0.0025 mg/kg, range of animals, read-out: apparent terminal elimination half-life (t½)): 3.4 to 4.3 h; half-life (IV bolus 0.025 mg/kg (as printed in conclusion), read-out: individual apparent terminal elimination half-life): 3.4 to 4.3 h; half-life (buccal, range in individual animals, read-out: apparent terminal elimination half-life): 3.1 to 5.6 h; concentration at 0.08 h (iv, 0.0025 mg/kg, IV 0.0025 mg/kg, individual animals 1-3, read-out: Plasma concentration Day 1 Hour 0.08): 1.21 ng/mL; concentration at 0.17 h (iv, 0.0025 mg/kg, IV 0.0025 mg/kg, individual animals 1-3, read-out: Plasma concentration Day 1 Hour 0.17): 0.834 ng/mL; concentration at 0.25 h (iv, 0.0025 mg/kg, IV 0.0025 mg/kg, individual animals 1-3, read-out: Plasma concentration Day 1 Hour 0.25): 0.74 ng/mL; concentration at 0.5 h (iv, 0.0025 mg/kg, IV 0.0025 mg/kg, individual animals 1-3, read-out: Plasma concentration Day 1 Hour 0.5): 0.562 ng/mL; concentration at 0.75 h (iv, 0.0025 mg/kg, IV 0.0025 mg/kg, individual animals 1-3, read-out: Plasma concentration Day 1 Hour 0.75): 0.534 ng/mL; concentration at 1 h (iv, 0.0025 mg/kg, IV 0.0025 mg/kg, individual animals 1-3, read-out: Plasma concentration Day 1 Hour 1): 0.379 ng/mL; concentration at 2 h (iv, 0.0025 mg/kg, IV 0.0025 mg/kg, individual animals 1-3, read-out: Plasma concentration Day 1 Hour 2): 0.198 ng/mL; concentration at 4 h (iv, 0.0025 mg/kg, IV 0.0025 mg/kg, individual animals 1-3, read-out: Plasma concentration Day 1 Hour 4): 0.0748 ng/mL; concentration at 6 h (iv, 0.0025 mg/kg, IV 0.0025 mg/kg, individual animals 1-3, read-out: Plasma concentration Day 1 Hour 6): 0.0476 ng/mL; concentration at 8 h (iv, 0.0025 mg/kg, IV 0.0025 mg/kg, individual animals 1-3, read-out: Plasma concentration Day 1 Hour 8): 0.0245 ng/mL; concentration at 12 h (iv, 0.0025 mg/kg, IV 0.0025 mg/kg, individual animals 1-3, read-out: Plasma concentration Day 1 Hour 12): 0.017 ng/mL; concentration at 16 h (iv, 0.0025 mg/kg, IV 0.0025 mg/kg, individual animals 1-3, values below LLOQ 10 pg/mL estimated, read-out: Plasma concentration Day 1 Hour 16): 0.00858 ng/mL; concentration at 0.08 h (iv, 0.0025 mg/kg, IV 0.0025 mg/kg, mean, read-out: Plasma concentration Day 1 Hour 0.08, Mean): 1.62 ng/mL; concentration at 0.17 h (iv, 0.0025 mg/kg, IV 0.0025 mg/kg, mean, read-out: Plasma concentration Day 1 Hour 0.17, Mean): 1.02 ng/mL; concentration at 0.25 h (iv, 0.0025 mg/kg, IV 0.0025 mg/kg, mean, read-out: Plasma concentration Day 1 Hour 0.25, Mean): 0.913 ng/mL; concentration at 0.5 h (iv, 0.0025 mg/kg, IV 0.0025 mg/kg, mean, read-out: Plasma concentration Day 1 Hour 0.5, Mean): 0.673 ng/mL; concentration at 0.75 h (iv, 0.0025 mg/kg, IV 0.0025 mg/kg, mean, read-out: Plasma concentration Day 1 Hour 0.75, Mean): 0.619 ng/mL; concentration at 1 h (iv, 0.0025 mg/kg, IV 0.0025 mg/kg, mean, read-out: Plasma concentration Day 1 Hour 1, Mean): 0.421 ng/mL; concentration at 2 h (iv, 0.0025 mg/kg, IV 0.0025 mg/kg, mean, read-out: Plasma concentration Day 1 Hour 2, Mean): 0.249 ng/mL; concentration at 4 h (iv, 0.0025 mg/kg, IV 0.0025 mg/kg, mean, read-out: Plasma concentration Day 1 Hour 4, Mean): 0.0887 ng/mL; concentration at 6 h (iv, 0.0025 mg/kg, IV 0.0025 mg/kg, mean, read-out: Plasma concentration Day 1 Hour 6, Mean): 0.0598 ng/mL; concentration at 8 h (iv, 0.0025 mg/kg, IV 0.0025 mg/kg, mean, read-out: Plasma concentration Day 1 Hour 8, Mean): 0.033 ng/mL; concentration at 12 h (iv, 0.0025 mg/kg, IV 0.0025 mg/kg, mean, read-out: Plasma concentration Day 1 Hour 12, Mean): 0.0226 ng/mL; concentration at 16 h (iv, 0.0025 mg/kg, IV 0.0025 mg/kg, mean, read-out: Plasma concentration Day 1 Hour 16, Mean): 0.00931 ng/mL
